# Columns and labels:
# Vitamin D3 receptor [1] = target: T1, Vitamin D3 receptor (Homo sapiens, UniProt P11473); assay: Induction of transactivation of human VDR responsive gene in COS7 cells by rat osteopontin luciferase reporter gene assay; format: cell-based, COS-7
# T1 sequence (P11473 whole entry): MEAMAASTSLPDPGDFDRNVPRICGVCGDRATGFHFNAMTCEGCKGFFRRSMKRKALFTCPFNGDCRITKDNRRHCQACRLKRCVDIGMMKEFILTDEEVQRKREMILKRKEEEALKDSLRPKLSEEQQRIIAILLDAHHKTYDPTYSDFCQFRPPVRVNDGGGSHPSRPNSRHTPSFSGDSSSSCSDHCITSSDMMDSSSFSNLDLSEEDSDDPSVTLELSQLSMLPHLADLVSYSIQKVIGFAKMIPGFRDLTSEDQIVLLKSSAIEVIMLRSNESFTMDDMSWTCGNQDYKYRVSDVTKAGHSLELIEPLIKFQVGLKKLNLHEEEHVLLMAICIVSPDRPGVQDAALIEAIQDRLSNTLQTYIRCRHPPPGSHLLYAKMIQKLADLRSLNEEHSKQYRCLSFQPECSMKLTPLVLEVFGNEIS
# Vitamin D3 receptor [2] = target: T2, Vitamin D3 receptor (Bos taurus, UniProt Q28037); assay: Displacement of [3H]1,25-(OH)2D3 from vitamin D receptor in bovine thymus
# T2 sequence (Q28037 whole entry): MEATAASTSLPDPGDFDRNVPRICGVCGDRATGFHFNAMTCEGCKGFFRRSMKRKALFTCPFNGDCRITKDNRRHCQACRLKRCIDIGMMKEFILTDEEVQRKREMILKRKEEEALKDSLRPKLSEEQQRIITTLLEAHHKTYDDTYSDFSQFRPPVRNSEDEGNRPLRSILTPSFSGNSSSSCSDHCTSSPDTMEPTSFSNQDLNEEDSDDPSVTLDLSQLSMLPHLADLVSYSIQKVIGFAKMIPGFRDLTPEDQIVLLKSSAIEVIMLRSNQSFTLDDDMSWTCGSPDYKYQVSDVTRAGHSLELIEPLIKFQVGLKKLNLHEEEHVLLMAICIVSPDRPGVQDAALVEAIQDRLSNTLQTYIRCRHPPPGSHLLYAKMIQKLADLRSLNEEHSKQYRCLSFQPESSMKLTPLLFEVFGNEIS
# HL-60 = assay: Induction of human HL60 cell differentiation to monocytes by NBT reduction assay; format: functional, cell-based
# Rattus norvegicus [3] = assay: Effect on intestinal calcium transport in low-calcium diet fed rat assessed as serosal:mucosal ratio of calcium at 100 pmol/day, ip after 7 days; format: functional
# Rattus norvegicus [4] = assay: Effect on intestinal calcium transport in low-calcium diet fed rat assessed as serosal:mucosal ratio of calcium at 325 pmol/day, ip after 7 days; format: functional
# Rattus norvegicus [5] = assay: Effect on intestinal calcium transport in low-calcium diet fed rat assessed as serosal:mucosal ratio of calcium at 650 pmol/day, ip after 7 days; format: functional
# Rattus norvegicus [6] = assay: Effect on bone calcium mobilization in low-calcium diet fed rat at 100 pmol/day, ip after 7 days; format: functional
# Rattus norvegicus [7] = assay: Effect on bone calcium mobilization in low-calcium diet fed rat at 325 pmol/day, ip after 7 days; format: functional
# Rattus norvegicus [8] = assay: Effect on bone calcium mobilization in low-calcium diet fed rat assessed by measuring at 650 pmol/day, ip after 7 days; format: functional
Structure (SMILES),EC50 (Vitamin D3 receptor [1]),EC50 (Vitamin D3 receptor [2]),EC50 (HL-60),Ratio (Rattus norvegicus [3]),Ratio (Rattus norvegicus [4]),Ratio (Rattus norvegicus [5]),Activity (Rattus norvegicus [6]),Activity (Rattus norvegicus [7]),Activity (Rattus norvegicus [8])
C=C1/C(=C\C=C2/CCC[C@@]3(C)C2CC[C@@H]3[C@@H](C)[C@H](C)CCC(C)(C)O)C[C@@H](O)C[C@@H]1O (stereo partly drawn),0.003 nM,0.031 nM,0.018 nM,7,8.2,12.2,5,8.1,8.4
C=C1/C(=C\C=C2/CCC[C@@]3(C)C2CC[C@@H]3[C@@H](C)[C@H](CC)CCC(C)(C)O)C[C@@H](O)C[C@@H]1O (stereo partly drawn),0.002 nM,0.018 nM,0.057 nM,5.7,6.3,8.5,3.9,5,6.2
C=C1/C(=C\C=C2/CCC[C@@]3(C)C2CC[C@@H]3[C@@H](C)[C@H](CCCC)CCC(C)(C)O)C[C@@H](O)C[C@@H]1O (stereo partly drawn),0.2 nM,0.89 nM,1.05 nM,,,,,,
C=C1/C(=C\C=C2/CCC[C@]3(C)[C@@H]([C@H](C)CCCC(C)(C)O)CC[C@@H]23)C[C@@H](O)C[C@@H]1O [CALCITRIOL],,,,,,,4.6,5.5,
